Common to all, as to assay: Growth inhibitory activity of compounds on BaF3 cell lines stably transfected with kinase (MTS, 48 h)
What all share (format): cell-based

Experiment [1] deals with T1, various mutants of kinase EGFR (BaF3 cell lines stably transfected with kinase) (Homo sapiens, UniProt P00533, T790M/C797S, form not given).
T1 construct: other: BaF3 cells stably transfected with EGFR Δ19Del/T790M/C797S; MTS, 48; other: BaF3 cell line stably transfected with EGFR Δ19Del/T790M/C7
As to conditions: BaF3 cells stably transfected with EGFR Δ19Del/T790M/C797S, read-out: IC50, growth inhibition, Δ19Del/T790M/C797S. An outline of the steps:
(§1)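 First, cells were seeded and treated with an eight-point threefold dilution series starting at 10 µM (0.1% DMSO). After 48 h at 37 °C, MTS reagent was added for 1-4 h before absorbance at 490 nm. Inhibition rates gave the IC50.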

The target of experiment [2] is T2, various mutants of kinase EGFR (BaF3 cell lines stably transfected with kinase) (Homo sapiens, UniProt P00533, L858R).
T2 construct: expressed in transfected cells; host or cells: BaF3
The conditions noted are these: BaF3 cells stably transfected with EGFR L858R, read-out: IC50, growth inhibition, L858R. In short, it runs like this: as §1

In experiment [3] the target is T3, various mutants of kinase EGFR (BaF3 cell lines stably transfected with kinase) (Homo sapiens, UniProt P00533, C797S/L858R/T790M).
T3 construct: expressed in transfected cells; host or cells: BaF3
As to conditions: BaF3 cells stably transfected with EGFR L858R/T790M/C797S, read-out: IC50, growth inhibition, L858R/T790M/C797S. In short, it runs like this:
as §1

In experiment [4] the target is T4, various mutants of kinase EGFR (BaF3 cell lines stably transfected with kinase) (Homo sapiens, UniProt P00533).
T4 construct: other: BaF3 cells stably transfected with EGFR Δ19Del; MTS, 48 h; other: BaF3 cell line stably transfected with EGFR Δ19Del
As to conditions: BaF3 cells stably transfected with EGFR Δ19Del, read-out: IC50, growth inhibition, Δ19Del. In short, it runs like this: as §1

Experiment [5] deals with T5, various mutants of kinase EGFR (BaF3 cell lines stably transfected with kinase) (Homo sapiens, UniProt P00533, L858R/T790M).
T5 construct: expressed in transfected cells; host or cells: BaF3
As to conditions: BaF3 cells stably transfected with EGFR L858R/T790M, read-out: IC50, growth inhibition, L858R/T790M. An outline of the steps: as §1

Experiment [6] deals with T6, various mutants of kinase EGFR (BaF3 cell lines stably transfected with kinase) (Homo sapiens, UniProt P00533, T790M, form not given).
T6 construct: other: BaF3 cells stably transfected with EGFR Δ19Del/T790M; MTS, 48 h; other: BaF3 cell line stably transfected with EGFR Δ19Del/T790M; MTS, 48
As to conditions: BaF3 cells stably transfected with EGFR Δ19Del/T790M, read-out: IC50, growth inhibition, Δ19Del/T790M. In short, it runs like this:
as §1

A value given as a limit tells only on which side of the number the result lay.

T5 sequence (P00533 25-1210 T790M/L858R): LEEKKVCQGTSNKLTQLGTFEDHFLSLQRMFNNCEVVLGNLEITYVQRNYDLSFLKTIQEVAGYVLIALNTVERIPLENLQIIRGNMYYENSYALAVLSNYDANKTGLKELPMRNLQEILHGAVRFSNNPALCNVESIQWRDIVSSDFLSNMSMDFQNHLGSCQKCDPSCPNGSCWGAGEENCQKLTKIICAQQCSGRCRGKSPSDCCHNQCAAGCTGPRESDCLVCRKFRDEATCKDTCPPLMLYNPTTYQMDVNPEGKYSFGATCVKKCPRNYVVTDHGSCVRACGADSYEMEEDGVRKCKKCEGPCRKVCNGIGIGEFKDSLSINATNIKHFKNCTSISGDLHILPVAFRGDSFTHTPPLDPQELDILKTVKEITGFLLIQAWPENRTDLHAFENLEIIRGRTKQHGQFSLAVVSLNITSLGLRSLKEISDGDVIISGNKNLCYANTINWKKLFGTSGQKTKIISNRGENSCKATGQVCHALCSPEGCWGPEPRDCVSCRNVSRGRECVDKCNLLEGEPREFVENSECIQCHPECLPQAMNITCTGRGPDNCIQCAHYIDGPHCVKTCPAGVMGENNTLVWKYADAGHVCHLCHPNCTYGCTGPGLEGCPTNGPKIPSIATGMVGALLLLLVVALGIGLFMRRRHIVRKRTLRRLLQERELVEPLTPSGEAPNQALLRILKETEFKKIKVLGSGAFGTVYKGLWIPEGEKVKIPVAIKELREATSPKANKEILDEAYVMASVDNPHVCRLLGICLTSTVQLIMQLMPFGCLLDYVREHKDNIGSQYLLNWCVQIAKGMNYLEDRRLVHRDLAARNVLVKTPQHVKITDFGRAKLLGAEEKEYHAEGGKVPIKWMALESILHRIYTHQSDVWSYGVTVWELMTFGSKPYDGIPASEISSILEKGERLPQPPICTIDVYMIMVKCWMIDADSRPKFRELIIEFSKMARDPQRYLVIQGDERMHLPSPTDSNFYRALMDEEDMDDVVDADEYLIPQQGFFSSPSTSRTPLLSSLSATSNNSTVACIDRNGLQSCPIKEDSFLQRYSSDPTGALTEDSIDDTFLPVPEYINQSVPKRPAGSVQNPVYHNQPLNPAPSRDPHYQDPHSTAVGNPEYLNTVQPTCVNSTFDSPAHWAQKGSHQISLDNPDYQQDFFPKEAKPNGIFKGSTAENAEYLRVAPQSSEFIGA
T6 sequence (P00533 with tags, fused parts or gaps DEL746-750/T790M, form open): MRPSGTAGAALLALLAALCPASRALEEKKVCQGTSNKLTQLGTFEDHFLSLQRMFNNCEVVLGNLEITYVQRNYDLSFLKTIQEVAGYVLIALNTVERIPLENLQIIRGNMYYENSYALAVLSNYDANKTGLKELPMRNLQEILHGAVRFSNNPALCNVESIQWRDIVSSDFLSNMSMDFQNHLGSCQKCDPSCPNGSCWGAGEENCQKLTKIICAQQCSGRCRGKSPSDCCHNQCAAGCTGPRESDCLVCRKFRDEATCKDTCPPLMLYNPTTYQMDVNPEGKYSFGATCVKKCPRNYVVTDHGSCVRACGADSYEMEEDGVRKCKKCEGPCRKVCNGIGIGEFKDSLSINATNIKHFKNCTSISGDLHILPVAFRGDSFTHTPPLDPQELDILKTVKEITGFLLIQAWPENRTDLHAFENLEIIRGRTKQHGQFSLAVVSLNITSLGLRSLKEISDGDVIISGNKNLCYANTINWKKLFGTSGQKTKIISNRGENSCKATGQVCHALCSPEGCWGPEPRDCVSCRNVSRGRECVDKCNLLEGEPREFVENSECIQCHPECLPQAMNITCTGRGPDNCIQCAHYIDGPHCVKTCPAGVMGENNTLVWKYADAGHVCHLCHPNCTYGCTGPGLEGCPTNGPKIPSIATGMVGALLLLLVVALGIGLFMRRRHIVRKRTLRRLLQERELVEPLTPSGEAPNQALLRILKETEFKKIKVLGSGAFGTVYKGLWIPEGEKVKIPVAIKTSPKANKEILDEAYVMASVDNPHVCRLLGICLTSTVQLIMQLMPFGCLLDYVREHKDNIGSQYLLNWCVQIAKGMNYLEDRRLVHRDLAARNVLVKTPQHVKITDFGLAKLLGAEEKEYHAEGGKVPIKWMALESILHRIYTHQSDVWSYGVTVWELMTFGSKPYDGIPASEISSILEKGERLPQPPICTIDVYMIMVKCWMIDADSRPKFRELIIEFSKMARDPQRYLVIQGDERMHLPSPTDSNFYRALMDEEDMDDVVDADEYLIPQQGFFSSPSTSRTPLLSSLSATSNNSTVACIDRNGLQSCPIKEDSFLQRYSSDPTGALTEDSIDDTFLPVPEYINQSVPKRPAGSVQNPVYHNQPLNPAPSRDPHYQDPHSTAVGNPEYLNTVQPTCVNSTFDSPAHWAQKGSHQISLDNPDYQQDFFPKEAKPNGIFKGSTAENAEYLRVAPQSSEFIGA
T1 sequence (P00533 with tags, fused parts or gaps DEL746-750/T790M/C797S, form open): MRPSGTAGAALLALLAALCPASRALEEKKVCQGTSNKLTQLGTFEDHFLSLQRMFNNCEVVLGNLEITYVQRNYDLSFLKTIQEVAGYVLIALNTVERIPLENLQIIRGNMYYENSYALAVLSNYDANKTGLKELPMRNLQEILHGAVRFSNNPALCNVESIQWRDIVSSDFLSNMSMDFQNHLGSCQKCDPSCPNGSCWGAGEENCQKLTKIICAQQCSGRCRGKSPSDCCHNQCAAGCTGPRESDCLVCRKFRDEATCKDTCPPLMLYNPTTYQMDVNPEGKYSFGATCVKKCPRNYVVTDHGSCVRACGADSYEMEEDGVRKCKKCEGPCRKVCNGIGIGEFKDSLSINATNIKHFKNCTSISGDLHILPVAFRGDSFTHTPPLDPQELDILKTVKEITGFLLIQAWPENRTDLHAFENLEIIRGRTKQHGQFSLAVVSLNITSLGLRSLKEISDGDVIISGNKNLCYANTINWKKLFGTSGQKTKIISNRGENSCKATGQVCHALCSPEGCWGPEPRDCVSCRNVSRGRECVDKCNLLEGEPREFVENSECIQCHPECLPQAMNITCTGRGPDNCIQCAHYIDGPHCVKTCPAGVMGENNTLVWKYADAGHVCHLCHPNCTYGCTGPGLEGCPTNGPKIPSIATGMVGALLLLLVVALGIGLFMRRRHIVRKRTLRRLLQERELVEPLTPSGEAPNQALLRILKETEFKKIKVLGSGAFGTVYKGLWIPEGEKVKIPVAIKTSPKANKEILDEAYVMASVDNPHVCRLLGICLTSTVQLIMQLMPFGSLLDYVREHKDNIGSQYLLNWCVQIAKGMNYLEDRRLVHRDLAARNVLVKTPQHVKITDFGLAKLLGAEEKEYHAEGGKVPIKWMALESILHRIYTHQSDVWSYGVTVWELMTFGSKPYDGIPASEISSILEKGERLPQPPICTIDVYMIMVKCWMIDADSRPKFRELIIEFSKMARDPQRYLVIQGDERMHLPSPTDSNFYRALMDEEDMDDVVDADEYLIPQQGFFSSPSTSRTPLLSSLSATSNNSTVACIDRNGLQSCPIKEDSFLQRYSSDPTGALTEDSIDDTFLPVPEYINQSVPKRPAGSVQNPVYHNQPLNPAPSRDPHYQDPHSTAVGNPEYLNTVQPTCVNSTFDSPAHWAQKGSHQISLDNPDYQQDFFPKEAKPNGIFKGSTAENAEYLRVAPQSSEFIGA
T4 sequence (P00533 with tags, fused parts or gaps DEL746-750): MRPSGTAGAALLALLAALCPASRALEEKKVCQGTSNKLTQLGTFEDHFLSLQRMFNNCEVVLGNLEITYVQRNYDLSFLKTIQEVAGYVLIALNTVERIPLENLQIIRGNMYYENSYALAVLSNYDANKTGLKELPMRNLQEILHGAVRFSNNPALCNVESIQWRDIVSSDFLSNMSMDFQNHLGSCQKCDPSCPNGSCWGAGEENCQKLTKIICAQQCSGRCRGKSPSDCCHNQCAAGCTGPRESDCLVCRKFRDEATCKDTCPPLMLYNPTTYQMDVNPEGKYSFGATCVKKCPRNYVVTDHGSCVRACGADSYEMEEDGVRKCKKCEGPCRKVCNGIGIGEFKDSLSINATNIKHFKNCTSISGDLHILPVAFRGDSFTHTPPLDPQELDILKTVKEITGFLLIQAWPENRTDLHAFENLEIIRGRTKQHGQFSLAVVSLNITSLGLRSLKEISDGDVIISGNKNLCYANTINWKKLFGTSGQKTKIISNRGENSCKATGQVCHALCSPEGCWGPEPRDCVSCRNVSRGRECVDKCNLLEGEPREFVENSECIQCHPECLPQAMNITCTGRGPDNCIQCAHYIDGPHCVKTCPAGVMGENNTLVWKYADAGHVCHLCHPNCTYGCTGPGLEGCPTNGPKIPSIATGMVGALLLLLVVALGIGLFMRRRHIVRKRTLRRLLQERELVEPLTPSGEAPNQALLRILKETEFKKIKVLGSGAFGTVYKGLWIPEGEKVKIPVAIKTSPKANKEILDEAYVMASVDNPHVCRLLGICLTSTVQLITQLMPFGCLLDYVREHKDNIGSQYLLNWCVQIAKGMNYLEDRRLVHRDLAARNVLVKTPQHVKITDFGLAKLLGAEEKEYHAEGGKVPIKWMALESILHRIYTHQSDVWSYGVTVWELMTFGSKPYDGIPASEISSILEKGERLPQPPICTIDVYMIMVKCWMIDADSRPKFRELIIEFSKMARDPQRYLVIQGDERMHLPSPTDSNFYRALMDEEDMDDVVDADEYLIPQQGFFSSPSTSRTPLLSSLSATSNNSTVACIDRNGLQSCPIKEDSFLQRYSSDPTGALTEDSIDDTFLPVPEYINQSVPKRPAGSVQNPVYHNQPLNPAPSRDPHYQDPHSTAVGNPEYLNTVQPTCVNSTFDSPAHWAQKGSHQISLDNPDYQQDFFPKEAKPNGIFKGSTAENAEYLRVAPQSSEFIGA

On to `CCc1cc(Nc2ncc(OC)c(Nc3ccc4nccnc4c3N(C)S(C)(=O)=O)n2)c(OC)cc1N1CCN(C)CC1` [Compound I-283], for which the IC50 in experiment [1], in experiment [2], in experiment [3], in experiment [4], in experiment [5] and in experiment [6] was at most 50 nM throughout.

In the case of `COc1cc(N2CCC(N3CCN(C)CC3)CC2)c(C(C)C)cc1Nc1ncc(Br)c(Nc2ccc3nccnc3c2N(C)S(C)(=O)=O)n1` [Compound I-284], the IC50 in experiment [1] was at most 50 nM; in experiment [2] it was 500 to 2500 nM; in experiment [3], at most 50 nM; in experiment [4], 50 to 500 nM; in experiment [5], 50 to 500 nM; in experiment [6] it was 50 to 500 nM.

As for `COc1cc(N2CCC(N3CCN(C)CC3)CC2)c(C2CC2)cc1Nc1ncc(Br)c(Nc2ccc3nccnc3c2N(C)S(C)(=O)=O)n1` [Compound I-285], the IC50 in experiment [1] was at most 50 nM; in experiment [2], 50 to 500 nM; in experiment [3] it was at most 50 nM; in experiment [4] it was 50 to 500 nM; in experiment [5], at most 50 nM; in experiment [6], at most 50 nM.

Regarding `CCc1cc(Nc2ncc(Br)c(Nc3ccc4nccnc4c3N(C)S(C)(=O)=O)n2)ccc1N1CCC(N2CCN(C)CC2)CC1` [Compound I-286], the IC50 in experiment [1], in experiment [2], in experiment [3], in experiment [4], in experiment [5] and in experiment [6] was at most 50 nM in each case.

Turning to `COc1cc(N2CCC(N3CCN(C)CC3)CC2)c(C2CC2)cc1Nc1ncc(Cl)c(Nc2ccc3nccnc3c2N(C)S(C)(=O)=O)n1` [Compound I-287], the IC50 in experiment [1] is at most 50 nM; in experiment [2] it was 50 to 500 nM; in experiment [3] it was at most 50 nM; in experiment [4], 50 to 500 nM; in experiment [5], at most 50 nM; in experiment [6], at most 50 nM.

For `COc1cc(N2CCC(N3CCN(C)CC3)CC2)c(C(C)C)cc1Nc1ncc(Cl)c(Nc2ccc3nccnc3c2N(C)S(C)(=O)=O)n1` [Compound I-288], the IC50 is 50 to 500 nM in experiment [1]; at most 50 nM in experiment [2]; 50 to 500 nM in experiment [3]; 50 to 500 nM in experiment [4]; 50 to 500 nM in experiment [5]; 50 to 500 nM in experiment [6].

As to `CCc1cc(Nc2ncc(Cl)c(Nc3ccc4nccnc4c3N(C)S(C)(=O)=O)n2)ccc1N1CCC(N2CCN(C)CC2)CC1` [Compound I-289], the IC50 in experiment [1], in experiment [2], in experiment [3], in experiment [4], in experiment [5] and in experiment [6] was at most 50 nM each time.

As to `C=Cc1cc(Nc2ncc([N+](=O)[O-])c(Nc3ccc4nccnc4c3N(C)S(C)(=O)=O)n2)c(OC(F)(F)F)cc1N1CCC(N2CCN(C)CC2)CC1` [Compound I-290], the IC50 in experiment [1] fell in the range of 50 to 500 nM; in experiment [2], 500 to 2500 nM; in experiment [3] it was 50 to 500 nM; in experiment [4] it was 500 to 2500 nM; in experiment [5] it was 50 to 500 nM; in experiment [6], 50 to 500 nM.

Turning to `COc1cc(N2CCC(N3CCN(C)CC3)CC2)c(C(C)C)cc1Nc1ncc(C2CC2)c(Nc2ccc3nccnc3c2N(C)S(C)(=O)=O)n1` [Compound I-291], the IC50 was 50 to 500 nM in experiment [1]; 50 to 500 nM in experiment [2]; 500 to 2500 nM in experiment [3]; 50 to 500 nM in experiment [4]; 50 to 500 nM in experiment [5]; 50 to 500 nM in experiment [6].

As for `COc1cc(N2CCC(N3CCN(C)CC3)CC2)c(C2CC2)cc1Nc1ncc(C2CC2)c(Nc2ccc3nccnc3c2N(C)S(C)(=O)=O)n1` [Compound I-292], the IC50 is 50 to 500 nM in experiment [1]; 50 to 500 nM in experiment [2]; 50 to 500 nM in experiment [3]; 50 to 500 nM in experiment [4]; at most 50 nM in experiment [5]; at most 50 nM in experiment [6].

On to `CCc1cc(Nc2ncc(C3CC3)c(Nc3ccc4nccnc4c3N(C)S(C)(=O)=O)n2)ccc1N1CCC(N2CCN(C)CC2)CC1` [Compound I-293], for which the IC50 in experiment [1] is 50 to 500 nM; in experiment [2], 50 to 500 nM; in experiment [3], 50 to 500 nM; in experiment [4], 50 to 500 nM; in experiment [5], at most 50 nM; in experiment [6] it was at most 50 nM.

As to `CCS(=O)(=O)N(C)c1c(Nc2nc(Nc3ccc(N4CCC(N5CCN(C)CC5)CC4)cc3OC)ncc2Cl)ccc2nccnc12` [Compound I-294], the IC50 in experiment [1] was at most 50 nM; in experiment [2], 50 to 500 nM; in experiment [3], 50 to 500 nM; in experiment [4], 50 to 500 nM; in experiment [5], 50 to 500 nM; in experiment [6], 50 to 500 nM.

In the case of `C=Cc1cc(Nc2ncc(Cl)c(Nc3ccc4nccnc4c3N(C)S(=O)(=O)CC)n2)c(OC(F)(F)F)cc1N1CCC(N2CCN(C)CC2)CC1` [Compound I-295], the IC50 was at most 50 nM in experiment [1]; 50 to 500 nM in experiment [2]; 50 to 500 nM in experiment [3]; 50 to 500 nM in experiment [4]; 50 to 500 nM in experiment [5]; 50 to 500 nM in experiment [6].

As for `CCN(c1c(Nc2nc(Nc3ccc(N4CCC(N5CCN(C)CC5)CC4)nc3OC)ncc2Br)ccc2nccnc12)S(C)(=O)=O` [Compound I-296], the IC50 is 500 to 2500 nM in experiment [1]; 50 to 500 nM in experiment [2]; 50 to 500 nM in experiment [3]; 50 to 500 nM in experiment [4]; 50 to 500 nM in experiment [5]; 50 to 500 nM in experiment [6].

In the case of `CCN(c1c(Nc2nc(Nc3cc(C)c(N4CCC(N5CCN(C)CC5)CC4)nc3OC)ncc2Br)ccc2nccnc12)S(C)(=O)=O` [Compound I-297], the IC50 in experiment [1] was in the range of 500 to 2500 nM; in experiment [2], 50 to 500 nM; in experiment [3], 500 to 2500 nM; in experiment [4], 500 to 2500 nM; in experiment [5], 50 to 500 nM; in experiment [6], 50 to 500 nM.

`C=Cc1cc(Nc2ncc(Br)c(Nc3ccc4nccnc4c3N(CC)S(C)(=O)=O)n2)c(OC(F)(F)F)cc1N1CCC(N2CCN(C)CC2)CC1` [Compound I-298]: the IC50 in experiment [1] was at most 50 nM; in experiment [2], 50 to 500 nM; in experiment [3], at most 50 nM; in experiment [4], 50 to 500 nM; in experiment [5], 50 to 500 nM; in experiment [6] it was at most 50 nM.

On to `CCN(c1c(Nc2nc(Nc3cc(C)c(N4CCC(N(C)C)CC4)cc3OC)ncc2Br)ccc2nccnc12)S(C)(=O)=O` [Compound I-299], for which the IC50 was at most 50 nM in experiment [1]; 50 to 500 nM in experiment [2]; at most 50 nM in experiment [3]; at most 50 nM in experiment [4]; at most 50 nM in experiment [5]; at most 50 nM in experiment [6].

Consider `CCN(c1c(Nc2nc(Nc3cc(C)c(N4CCN(C)CC4)cc3OC)ncc2Br)ccc2nccnc12)S(C)(=O)=O` [Compound I-300], for which the IC50 in experiment [1] is at most 50 nM; in experiment [2] it was 50 to 500 nM; in experiment [3], at most 50 nM; in experiment [4], 50 to 500 nM; in experiment [5], at most 50 nM; in experiment [6], 50 to 500 nM.

With `CCc1cc(Nc2ncc(Br)c(Nc3ccc4nccnc4c3N(CC)S(C)(=O)=O)n2)c(OC)cc1N1CCN(C)CC1` [Compound I-301], the IC50 in experiment [1] was at most 50 nM; in experiment [2], at most 50 nM; in experiment [3], at most 50 nM; in experiment [4] it was 50 to 500 nM; in experiment [5], at most 50 nM; in experiment [6] it was at most 50 nM.

As for `CCN(c1c(Nc2nc(Nc3cc(C)c(N4CCC(N(C)C)C4)cc3OC)ncc2Br)ccc2nccnc12)S(C)(=O)=O` (stereo not drawn) [Compound I-302], the IC50 is 50 to 500 nM in experiment [1]; 50 to 500 nM in experiment [2]; at most 50 nM in experiment [3]; 50 to 500 nM in experiment [4]; at most 50 nM in experiment [5]; at most 50 nM in experiment [6].

The values are drawn from US20230310428A1, “EGFR INHIBITOR AND PREPARATION METHOD AND USE THEREOF” (HONGYUN BIOTECH CO., LTD., priority 2020, published 2023).
